Several values for one entry are separate records, joined by “and”; a condition that tells them apart may be missing. Equal values may be shown once.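 Five compound concentrations were applied to cells in 96-well plates for 48 hours; endpoints were derived by simple linear interpolation of the resulting dose-response curve. GI50 marks 50% less growth. The concentration for full growth arrest is given as TGI.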 Where a SMILES comes first, the peptide text is derived from it. The star is where a group is joined. Trt = c1ccc(C(c2ccccc2)(c2ccccc2)*)cc1; Cbz = O=C(OCc1ccccc1)* Bounds are passed on as bounds.

The results in this text go back to PubChem BioAssay (NCI).

Test in all cases: inhibition of tumour cell growth, NCI panel, 48 h
In assay [1] the test system is SN12C renal.
For assay [2], the system named is TK-10 renal.
Assay [3] relates to IGROV1 ovarian.
The test system of assay [4] is COLO 205 colon.
Assay [5] concerns U251 CNS.
Assay [6] has as its system SK-OV-3 ovarian.
In assay [7] the test system is HCT-15 colon.
In assay [8] the test system is NCI-H23 lung.

Consider `O=C(CCCCCCCCC(=O)N/N=C\c1cc(Cl)ccc1O)N/N=C\c1cc(Cl)ccc1O`, for which the GI50 is 427 nM in assay [1]; 3.89 µM in assay [2]; 0.83 µM in assay [3]; 3190 nM in assay [4]; 0.192 µM in assay [5]; 685 nM in assay [6]. Besides, the values for the GI50 in assay [7] and in assay [8] were 0.251 µM and 636 nM, respectively. Moreover, the TGI in assay [1] is above 100 µM; in assay [2] it was above 75.5 µM; in assay [3], above 100 µM; in assay [4] it was above 100 µM; in assay [5], 25.9 µM; in assay [6] it was 79.9 µM. Also, the TGI is above 100 µM in assay [7] and above 67.3 µM in assay [8].
As for `CC(N1CCOCC1)C(O)(c1ccccc1)c1ccccn1` (centres undefined), the TGI in assay [1], in assay [2], in assay [3], in assay [4], in assay [5] and in assay [6] was above 100 µM throughout. Further, the TGI in assay [7] and in assay [8] was above 100 µM in each case.
In the case of `O=C(NOCCO)c1cc(CN2OCCCC2=O)c(F)c(F)c1Nc1ccc(I)cc1F`, the GI50 in assay [1] was 2150 nM and 2170 nM; in assay [3] it was 0.101 µM and 0.0246 µM; in assay [4] it was < 10 nM and 2.19 nM; in assay [5], 0.362 µM and 0.479 µM; in assay [6], 22600 nM and > 2500 nM; in assay [7] it was 5.74 µM and > 6.24 µM. Moreover, in assay [8], the GI50 is < 22.2 nM and 54.5 nM. The TGI in assay [1] is above 100 µM; in assay [2] it was above 100 µM; in assay [3], above 52.5 µM; in assay [4], 14.9 µM and > 10 µM; in assay [5] it was 23.8 µM and > 10 µM; in assay [6], above 85.8 µM. The TGI in assay [7] was above 100 µM; in assay [8], 26.5 µM and > 10 µM.
`CCCN1CCC=C(c2ccc(Nc3nc(Nc4ccccc4C(N)=O)c4cc[nH]c4n3)c(C)c2)C1`: the GI50 in assay [1] was above 21100 nM; in assay [2], 4.61 µM; in assay [3] it was 8.29 µM; in assay [4], 2370 nM; in assay [5] it was 9.78 µM; in assay [6], 9680 nM. Further, the GI50 in assay [7] is 8.98 µM; in assay [8], 8160 nM. Further, the TGI in assay [1] is above 25 µM; in assay [2], 24.4 µM; in assay [3] it was above 25 µM; in assay [4], 8.68 µM; in assay [5] it was above 25 µM; in assay [6], above 25 µM. The TGI in assay [7] and in assay [8] was above 25 µM in each case.
For `COc1cc(-c2cc(=O)c3c(O)c(OC)c(OC)c(OC)c3o2)cc(OC)c1OC`, the TGI in assay [1] is above 100 µM; in assay [2], above 57.6 µM; in assay [3], above 100 µM; in assay [4], above 100 µM; in assay [5], above 22.2 µM; in assay [6], 26 µM. Also, the TGI was above 100 µM in assay [7] and above 62.5 µM in assay [8].
Turning to `COC(=O)C(CSC(c1ccccc1)(c1ccccc1)c1ccccc1)NC(=O)C(CC(N)=O)NC(=O)OCc1ccccc1` (stereo not drawn) (Cbz-Asn-Cys(Trt)-OMe; configuration not given here), the GI50 in assay [1] was 3540 nM; in assay [2], 5.69 µM; in assay [3], 6.1 µM; in assay [4], 1640 nM; in assay [5], 5.87 µM; in assay [6], 2420 nM. For the same compound, the GI50 was 3.81 µM in assay [7] and 5730 nM in assay [8]. The TGI in assay [1] worked out at 15 µM; in assay [2], 26.8 µM; in assay [3] it was 25.7 µM; in assay [4] it was 3.4 µM; in assay [5], 18.5 µM; in assay [6], 10.2 µM. The TGI in assay [7] was 14.1 µM; in assay [8], 22.6 µM.
`Cc1c(Cl)c(C)c(Cc2c(C)c(Cl)c(C)c(Cl)c2O)c(O)c1Cl`: the GI50 in assay [1] was 2460 nM; in assay [2] it was 3.79 µM; in assay [3], 4.07 µM; in assay [4] it was 3040 nM; in assay [5], 3.1 µM; in assay [6], 2680 nM. In addition, the figures for the GI50 in assay [7] and in assay [8] were 2.32 µM and 2460 nM, respectively. The TGI in assay [1] is 11.8 µM; in assay [2], 17.2 µM; in assay [3] it was 19 µM; in assay [4] it was 9.24 µM; in assay [5] it was 10.9 µM; in assay [6], 9.46 µM. In addition, the TGI in assay [7] is 10.7 µM; in assay [8], 8.79 µM.
As to `CC1=C(N2CC2)C(=O)c2ccccc2C1=O`, the TGI in assay [1] was 2.09 µM; in assay [2], 6.48 µM; in assay [3], 8.58 µM; in assay [4], 2.05 µM; in assay [5], 10.3 µM; in assay [6], above 100 µM. Also, in assay [7], the TGI was 3.52 µM.
Consider `CCN(CC)Cc1cc(Nc2c3ccccc3nc3cc(Cl)ccc23)ccc1O`, for which the GI50 in assay [1] was 1050 nM; in assay [2], 1.64 µM; in assay [3], 1.65 µM; in assay [4] it was 1050 nM; in assay [5] it was 1.39 µM; in assay [6] it was 2010 nM. Further, the GI50 in assay [7] is 3.49 µM. Besides, the TGI in assay [1] came to 2.67 µM; in assay [2], 3.23 µM; in assay [3] it was 3.55 µM; in assay [4] it was 2.3 µM; in assay [5], 2.89 µM; in assay [6], 3.86 µM. In assay [7], the TGI worked out at 17 µM.
For the compound `NS(=O)(=O)c1ccc(NC(=O)c2cccc(NC3=C(Cl)C(=O)N(Cc4ccccc4)C3=O)c2)cc1`, the GI50 in assay [1] was 11600 nM; in assay [2] it was 15.2 µM; in assay [3] it was 4.78 µM; in assay [4] it was 22600 nM; in assay [5], 5.18 µM; in assay [6] it was 26900 nM. Further, the GI50 in assay [7] is 15.1 µM. The TGI amounted to 25.9 µM in assay [1]; 31.4 µM in assay [2]; 19.2 µM in assay [3]; 85.8 µM in assay [4]; 19.6 µM in assay [5]; 77.5 µM in assay [6]. Further, the TGI in assay [7] came to 38.8 µM.
Turning to `CN(C(=O)CNC(=O)/C=C/c1cccc(Cl)c1)C1CCS(=O)(=O)CC1`, the GI50 in assay [1] is 2990 nM; in assay [2], 2.27 µM; in assay [3] it was 3.05 µM; in assay [4] it was 1100 nM; in assay [5], 39.5 µM; in assay [6], 18200 nM. For the same compound, the GI50 in assay [7] is 0.819 µM. Moreover, the TGI in assay [1], in assay [2], in assay [3], in assay [4], in assay [5] and in assay [6] was above 100 µM each time. The same compound came in with a TGI in assay [7] above 100 µM.
